Data from patent publication US20250082624A1, “METHODS OF TREATING COGNITIVE IMPAIRMENT” (NeuroTherapia, Inc., priority 2023, published 2025).
Several values for one entry are separate records, joined by “and”; a condition that tells them apart may be missing. Identical values can stand only once. Entries after “also recorded” stand apart in the source; their conditions may differ.

System: volunteers and AD patients
Experiment: Phase 1b MAD safety and tolerability (adverse events, ECG, safety labs)
Assay type: in vivo, human
From the text: Methods: All study procedures were approved by the IRB, and informed consent was obtained. Three cohorts of volunteers 45-80 years of age with well-controlled comorbidities (NOAD) and one cohort of AD patients diagnosed with cognitive impairment consistent with prodromal AD per International Working Group criteria or mild AD per National Institute on Aging—Alzheimer's Association criteria (n=6 active, 2 placebo per cohort) were enrolled. Participants were admitted to the study site for the duration of the dosing and returned 7-12 days after the last dose for a safety visit. Participants received NTRX-07 (10, 30, or 90 mg) or a placebo in a double-blinded randomization orally once daily for seven days. Subjects were assessed for changes in vital signs, including maneuvers to induce lightheadedness, electrocardiograms, 24-hour electroencephalograms (EEG), and safety laboratory studies. The second cohort returned and received a single repeat dose after a standard high-fat meal. The AD cohort also underwent cognitive testing and had blood samples for biomarkers drawn. Subjects had PK sampling done after the first and final dose of the study drug. An independent safety review committee conducted a blinded safety review of adverse events and plasma levels between each cohort.
Assessments: Subjects were assessed for changes in vital signs, orthostatic blood pressure, Romberg test, nystagmus, timed get up and go, electrocardiograms, electroencephalograms (EEG), and laboratory studies. Subjective questionnaires of drug effects (ARCI-M) were administered. Cohort B returned and received a single repeat dose after a standard high-fat meal. The AD cohort also underwent cognitive testing (MMSE, ADAS-COG, MOCA) and had blood samples for biomarkers drawn.
An informational letter was filed with the FDA to inform them of this study. The study was designed as follows: • 3 healthy cohorts (cohorts A-C) followed by AD cohort (cohort D) treated at MTD • 6 treated, 2 placebos in each cohort • Doses: 10, 30, 90 mg/treatment—latter doses can be adjusted based on PK assessment • In unit, 7 days of treatment • Monitor vertigo with various tests: (1) timed get-up and go, (2) Nystagmus test, (3) Romberg test, and (4) changes in orthostatic blood pressure (Day 1, 3 and 8) • Use 24 hr EEG monitoring for CNS safety assessment • Assess plasma biomarkers of inflammation and AD pre- and post-treatment in AD cohort • Assess changes on cognition post-treatment using MMSE and ADAS-cog • Fed/fasted study to determine food effects on PK as a subset of the Phase 1b

[1] = Phase 1b, individual subjects on NTRX-07, Cohorts C and D (90 mg QD)

SMILES: CC1(Cc2ccccc2)COc2cc(C(=O)N3CCCCC3)ccc21 (centres unmarked) [NTRX-07, 3-benzyl-3-methyl-2,3-dihydrobenzofuran-6-carboxylic acid-piperidine amide]
- Changes in ECG or safety labs (Phase 1b): No clinically meaningful changes
- Dose-limiting toxicities / serious adverse events (Phase 1b, 10, 30, 90 mg oral QD for 7 days): no dose-limiting or serious adverse events; also recorded: safely administered; also recorded: No dose limiting toxicities at any of the tested doses
- Adverse events observed during trial: Description of Event [1]: Subfebrility; also recorded: Heartburn; also recorded: Dry mouth; also recorded: Xerostomia; also recorded: Hypertension; also recorded: Nausea; also recorded: Hypertension,; also recorded: tachycardia; also recorded: Dizziness; also recorded: Presyncope; also recorded: Weakness
- Adverse events observed during trial: Related to Study Drug? [1]: Possible (7×) and Probable and None (2×)
- Adverse events observed during trial: Severity [1]: Mild (8×) and Moderate (2×)
